Data as given in US7452965B2, “Colon tumor specific binding peptides” (University of Utah Research Foundation, priority 2002, dated 2008).
Entries after “also recorded” stand apart in the source; their conditions may differ. Ends that are not written are not given here.

How the values were obtained:
[1] = system: human colon tumor; experiment: Peptide-binding assay on frozen tissue sections; settings: frozen sections, 4° C.
Description: (§1) A biopsy of sporadic colon adenocarcinoma, liver and lung sarcoma, and grossly uninvolved colon, liver, lung, and stomach were frozen in optimum cutting temperature (OCT) and […] cryostat sections placed on glass slides. Sections were stained with H&E and untreated adjacent sections were incubated with RPM-FITC. After incubating with RPM-FITC in binding buffer for 45 minutes at 4° C., slides were washed and mounted using Pro-Long Anti-Fade (Molecular Probes). Nuclei were visualized by a quick incubation with Topro-3 (Molecular Probes) present in the last wash. Samples were analyzed by confocal microscopy.

[2] = system: HT29 cells; experiment: RPM-FITC immunofluorescence staining of cultured cells (confocal microscopy); assay type: cell-based; settings: for localisation of peptide in HT29 cells: 100 uM, 1 hour
Description: (§2) Cell Culture: HT29, HCT116, or a 50% mixture of HT29 and HCT116 cells were plated on glass slides (Nalge). Wells were incubated with 10 μM of RPM-FITC peptide for 45 minutes at 4° C. or 37° C. After washing with wash buffer, cells were blocked with 1% NGS, 0.1% BSA, 0.1% Triton-X100 in PBS. Following the blocking step, wells were incubated with the polyclonal p53 antibody, D10, (Santa Cruz) for 1 hour at room temperature. The wells were washed and incubated with the secondary antibodies GαFITC Alexa 488 (Molecular Probes) and GαMouse Alexa 647 (Molecular Probes) and the nuclear stain Topro-3 (Molecular Probes). Wells were washed and mounted using Pro-Long Anti-fade (Molecular Probes). Slides were analyzed by confocal microscopy.
The peptide then was tested to determine whether it was able to differentiate HT29 from HCT116 cells. In order to distinguish HT29 from HCT116 cells in our immunohistochemical assays, staining was carried out in the presence of the transcription factor, p53. Staining for the protein p53 is a way to visually discriminate HT29 from HCT116 cells, since p53 is mutated and accumulates in HT29 cells but is wild type in HCT116 cells and thus, is rapidly degraded. […] To test the ability of the fluorescein conjugated peptide (RPM-FITC) to preferentially bind HT29 cells, HT29 and HCT116 cells were stained with RPM-FITC. […] When a mixture of HT29 and HCT116 cells was incubated with RPM-FITC and concurrently analyzed for the presence of p53, cells with the highest level of p53 protein also bound RPM-FITC (FIG. 5A).
The ability of a molecule to translocate across the cell membrane is important for drug delivery. HT29 cells were incubated for 1 hour at either 4° C. or 37° C. in the presence of 100 uM RPM-FITC. After incubation, cells were washed, fixed with 2% paraformaldehyde, then incubated with an anti-FITC secondary antibody to amplify the fluorescence signal.

[3] = system: grossly uninvolved normal colon; experiment: Peptide-binding assay on frozen tissue sections; set-up: species or system human
Description: as §1

[4] = system: HCT116 cells; experiment: RPM-FITC immunofluorescence staining of cultured cells (confocal microscopy); assay type: cell-based; settings: 1 hour at 4° C.
Description: as §2, with “Wells were incubated with 10 μM of RPM-FITC peptide for 45 minutes at 4° C. or 37° C.” left out
The peptide then was tested to determine whether it was able to differentiate HT29 from HCT116 cells. In order to distinguish HT29 from HCT116 cells in our immunohistochemical assays, staining was carried out in the presence of the transcription factor, p53. Staining for the protein p53 is a way to visually discriminate HT29 from HCT116 cells, since p53 is mutated and accumulates in HT29 cells but is wild type in HCT116 cells and thus, is rapidly degraded. […] When a mixture of HT29 and HCT116 cells was incubated with RPM-FITC and concurrently analyzed for the presence of p53, cells with the highest level of p53 protein also bound RPM-FITC (FIG. 5A).

[5] = system: lung and liver cancer, grossly uninvolved lung, liver, and stomach; experiment: Peptide-binding assay on frozen tissue sections; set-up: species or system human; settings: cryostat sections
Description: as §1
To determine whether RPM-FITC was able to bind cancers originated from tissues other than colon or to other normal tissues, a peptide-binding assay was performed on cryostat sections of lung and liver cancer, and grossly uninvolved lung, liver, and stomach. As a positive control, a section of colon tumor was stained in parallel with the other sections. […] Binding to HT29 Cells is Dependent on the Amino Acids, RPMC-C (SEQ ID NO: 136).

With “RPM-FITC: fluorescein conjugated peptide (RPM-FITC) (CPIEDRPMC; cysteine pairing not given here; also: fluorescein (FITC) conjugated, position not given here)” as the substance, how does the “binding/staining of human colon tumor sections” value [1] read?
Its value is “preferential binding; also recorded: bright staining”.

And the “binding/staining of human colon tumor sections” value ([1]; listed as FITC-conjugated RPM)?
Its value is “showed binding”.

What about the “localisation of peptide in HT29 cells” value ([2]; 4° C.) of the same substance?
The value was “confined to the cell surface”.

What about the “localisation of peptide in HT29 cells” value ([2]; 37° C.) of the same substance?
The value was “diffuse staining throughout the cells”.

And the “RPM-FITC staining of HT29 cells” value ([2]; 1 hour at 4° C.)?
Its value is “showed fluorescence”.

What about the “binding to adjacent normal colon tissue” value [3] of the same substance?
The value was “no binding”.

And the “RPM-FITC staining of HCT116 cells” value [4]?
The value was “little or no fluorescence”.

What about the “labeling of lung and liver cancer and uninvolved lung, liver, stomach” value [5] of the same substance?
Its value is “no labeling”.
